# Laboratory results: US20230040770A1, “HETEROCYCLIC COMPOUND AND USE THEREOF” (TAKEDA PHARMACEUTICAL COMPANY LIMITED, priority 2019, published 2023)
# Molecular target: T1, human orexin type 2 receptor (Homo sapiens, UniProt O43614)
# T1 construct: expressed in transfected cells
# T1 sequence (O43614 1-444): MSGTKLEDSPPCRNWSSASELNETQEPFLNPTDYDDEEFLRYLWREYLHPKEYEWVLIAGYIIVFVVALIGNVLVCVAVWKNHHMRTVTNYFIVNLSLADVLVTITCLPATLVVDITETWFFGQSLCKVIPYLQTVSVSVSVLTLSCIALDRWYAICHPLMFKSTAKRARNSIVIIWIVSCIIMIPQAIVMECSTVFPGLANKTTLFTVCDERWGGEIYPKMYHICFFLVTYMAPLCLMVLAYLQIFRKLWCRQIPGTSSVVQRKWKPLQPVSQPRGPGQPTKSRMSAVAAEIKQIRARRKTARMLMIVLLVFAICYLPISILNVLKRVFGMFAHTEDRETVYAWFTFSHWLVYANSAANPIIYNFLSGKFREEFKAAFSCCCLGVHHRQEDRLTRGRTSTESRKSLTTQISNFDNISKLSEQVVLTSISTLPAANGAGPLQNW
# Test: Measurement of orexin type 2 receptor agonist activity (calcium indicator fluorescence, CHO cells forcibly expressing human OX2 receptor)
# Assay type: cell-based
# Details: compound at 3 μM; 0% = DMSO, 100% = orexin A (human) 10 nM
# Procedure, shortened: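 CHO-dhfr cells stably expressing human OX2R, loaded with Fluo-4 AM (30 min 37 °C, then 30 min RT), then given test compound. Calcium fluorescence read by FDSS over ~2 min. Activity (%) scaled from DMSO (0%) to 10 nM final orexin A (100%).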
row,"OX2R agonist activity (3 μM, %) [%]",Compound
1,96,"CCS(=O)(=O)N[C@H]1[C@@H](F)CN(C(=O)C2CCO2)[C@H]1Cc1cccc(-c2cc(C)cc(F)c2)c1F (stereo partly drawn) [Example 501, N-[(2S,3R,4S)-2-[(2,3′-difluoro-5′-methyl[1,1′-biphenyl]-3-yl)methyl]-4-fluoro-1-(oxetane-2-carbonyl)pyrrolidin-3-yl]ethanesulfonamide]"
2,96,"CCS(=O)(=O)N[C@H]1[C@@H](F)CN(C(=O)C2CCO2)[C@H]1Cc1cccc(-c2cc(C)ccc2F)c1F (stereo partly drawn) [Example 502, N-[(2S,3R,4S)-2-[(2,2′-difluoro-5′-methyl[1,1′-biphenyl]-3-yl)methyl]-4-fluoro-1-(oxetane-2-carbonyl)pyrrolidin-3-yl]ethanesulfonamide]"
3,89,"CCS(=O)(=O)N[C@@H]1[C@H](Cc2cccc(-c3cccc(C(F)F)c3)c2F)N(C(=O)C2CCO2)CC1(F)F (stereo partly drawn) [Example 503, N-[(2S,3R)-2-{[3′-(difluoromethyl)-2-fluoro[1,1′-biphenyl]-3-yl]methyl}-4,4-difluoro-1-(oxetane-2-carbonyl)pyrrolidin-3-yl]ethanesulfonamide]"
4,90,"CCS(=O)(=O)N[C@@H]1[C@H](Cc2cccc(-c3cccc(C(F)F)c3)c2F)N(C(=O)C2CCO2)CC1(F)F (stereo partly drawn) [Example 504, N-[(S,3R)-2-{[3′-(difluoromethyl)-2-fluoro[1,1′-biphenyl]-3-yl]methyl}-4,4-difluoro-1-(oxetane-2-carbonyl)pyrrolidin-3-yl]ethanesulfonamide]"
5,88,"CCS(=O)(=O)N[C@@H]1[C@H](Cc2cccc(-c3cccc(C(F)F)c3)c2F)N(C(=O)C2CC(F)C2)CC1(F)F (stereo partly drawn) [Example 505, N-[(2S,3R)-2-{[3′-(difluoromethyl)-2-fluoro[1,1′-biphenyl]-3-yl]methyl}-4,4-difluoro-1-(3-fluorocyclobutane-1-carbonyl)pyrrolidin-3-yl]ethanesulfonamide]"
6,100,"CCS(=O)(=O)N[C@@H]1[C@H](Cc2cccc(-c3cccc(C(F)F)c3)c2F)N(C(=O)C2CC(F)C2)CC1(F)F (stereo partly drawn) [Example 506, N-[(2S,3R)-2-{[3′-(difluoromethyl)-2-fluoro[1,1′-biphenyl]-3-yl]methyl}-4,4-difluoro-1-(3-fluorocyclobutane-1-carobnyl)pyrrolidin-3-yl]ethanesulfonamide]"
7,97,"CCS(=O)(=O)N[C@@H]1[C@H](Cc2cccc(-c3cccc(C(F)F)c3)c2F)N(C(=O)C(C)C)CC1(F)F [Example 507, N-[(2S,3R)-2-{[3′-(difluoromethyl)-2-fluoro[1,1′-biphenyl]-3-yl]methyl}-4,4-difluoro-1-(2-methylpropanoyl)pyrrolidin-3-yl]ethanesulfonamide]"
8,96,"CCS(=O)(=O)N[C@@H]1[C@H](Cc2cccc(-c3cccc(C(F)F)c3)c2F)N(C(=O)C2CC2)CC1(F)F [Example 508, N-[(2S,3R)-1-(cyclopropanecarbonyl)-2-{[3′-(difluoromethyl)-2-fluoro[1,1′-biphenyl]-3-yl]methyl}-4,4-difluoropyrrolidin-3-yl]ethanesulfonamide]"
9,85,"CCS(=O)(=O)N[C@@H]1[C@H](Cc2cccc(-c3cccc(C(F)F)c3)c2F)N(C(=O)C23CC(C2)C3)CC1(F)F [Example 509, N-[(2S,3R)-1-(bicyclo[1.1.1]pentane-1-carbonyl)-2-{[3′-(difluoromethyl)-2-fluoro[1,1′-biphenyl]-3-yl]methyl}-4,4-difluoropyrrolidin-3-yl]ethanesulfonamide]"
10,97,"CCS(=O)(=O)N[C@@H]1[C@H](Cc2cccc(-c3cccc(OC)c3)c2F)N(C(=O)C23CC(C2)C3)CC1(F)F [Example 510, N-{(2S,3R)-1-(bicyclo[1.1.1]pentane-1-carbonyl)-4,4-difluoro-2-[(2-fluoro-3′-methoxy[1,1′-biphenyl]-3-yl)methyl]pyrrolidin-3-yl}ethanesulfonamdie]"
11,98,"CCS(=O)(=O)N[C@@H]1[C@H](Cc2cccc(-c3cccc(OC)c3)c2F)N(C(=O)C(C)C)CC1(F)F [Example 511, N-[(2S,3R)-4,4-difluoro-2-[(2-fluoro-3′-methoxy[1,1′-biphenyl]-3-yl)methyl]-1-(2-methylpropanoyl)pyrrolidin-3-yl]ethanesulfonamide]"
12,95,"CCS(=O)(=O)N[C@@H]1[C@H](Cc2cccc(-c3cccc(OC)c3)c2F)N(C(=O)C2CC2)CC1(F)F [Example 512, N-{(2S,3R)-1-(cyclopropanecarbonyl)-4,4-difluoro-2-[(2-fluoro-3′-methoxy[1,1′-biphenyl]-3-yl)methyl]pyrrolidin-3-yl}ethanesulfonamide]"
13,97,"CCS(=O)(=O)N[C@@H]1[C@H](Cc2cccc(-c3cccc(OC)c3)c2F)N(C(=O)C2(O)CCC2)CC1(F)F [Example 513, N-[(2S,3R)-4,4-difluoro-2-[(2-fluoro-3′-methoxy[1,1′-biphenyl]-3-yl)methyl]-1-(1-hydroxycyclobutane-1-carbonyl)pyrrolidin-3-yl]ethanesulfonamide]"
14,95,"CCS(=O)(=O)N[C@H]1[C@@H](F)CN(C(=O)C2CC2)[C@H]1Cc1cccc(-c2cccc(C)c2)c1F [Example 514, N-{(2S,3R,4S)-1-(cyclopropanecarbonyl)-4-fluoro-2-[(2-fluoro-3′-methyl[1,1′-biphenyl]-3-yl)methyl]pyrrolidin-3-yl}ethanesulfonamide]"
15,98,"CCS(=O)(=O)N[C@H]1[C@@H](F)CN(C(=O)C2CC2)[C@H]1Cc1cccc(-c2cc(C)cc(F)c2)c1F [Example 515, N-{(2S,3R,4S)-1-(cyclopropanecarbonyl)-2-[(2,3′-difluoro-5′-methyl[1,1′-biphenyl]-3-yl)methyl]-4-fluoropyrrolidin-3-yl}ethanesulfonamide]"
16,102,"CCS(=O)(=O)N[C@H]1[C@@H](F)CN(C(=O)C2CC2)[C@H]1Cc1cccc(-c2cccc(Cl)c2)c1F [Example 516, N-[(2S,3R,4S)-2-[(3′-chloro-2-fluoro[1,1′-biphenyl]-3-yl)methyl]-1-(cyclopropanecarbonyl)-4-fluoropyrrolidin-3-yl]ethanesulfonamide]"
17,100,"CCS(=O)(=O)N[C@H]1[C@@H](F)CN(C(=O)C2CC2)[C@H]1Cc1cccc(-c2cc(F)cc(Cl)c2)c1F [Example 517, N-[(2S,3R,4S)-2-[(3′-chloro-2,5′-difluoro[1,1′-biphenyl]-3-yl)methyl]-1-(cyclopropanecarbonyl)-4-fluoropyrrolidin-3-yl]ethanesulfonamide]"
18,98,"CCS(=O)(=O)N[C@H]1[C@@H](F)CN(C(=O)C2CC2)[C@H]1Cc1cccc(-c2ccccc2F)c1F [Example 518, N-{(2S,3R,4S)-1-(cyclopropanecarbonyl)-2-[(2,2′-difluoro[1,1′-biphenyl]-3-yl)methyl]-4-fluoropyrrolidin-3-yl}ethanesulfonamide]"
19,98,"CCS(=O)(=O)N[C@H]1[C@@H](F)CN(C(=O)C2CC2)[C@H]1Cc1cccc(-c2cccc(C)c2F)c1F [Example 519, N-{(2S,3R,4S)-1-(cyclopropanecarbonyl)-2-[(2,2′-difluoro-3′-methyl[1,1′-biphenyl]-3-yl)methyl]-4-fluoropyrrolidin-3-yl}ethanesulfonamide]"
